Literature values as cited in US7718667B2, “Fused aminopiperidines as dipeptidyl peptidase-IV inhibitors for the treatment or prevention of diabetes” (Merck Sharp & Dohme Corp., priority 2004, dated 2010).

Experiments:
rats = details: survival doubled from day 7
mouse = details: cyclophosphamide-induced neutropenia
DPP-IV = target: T1, DPP-IV (Homo sapiens, UniProt P27487)
T1 construct: GRF is rapidly degraded in plasma to GRF[3-44]; from tissue
T1 sequence (P27487 39-766 limits assumed, species assumed): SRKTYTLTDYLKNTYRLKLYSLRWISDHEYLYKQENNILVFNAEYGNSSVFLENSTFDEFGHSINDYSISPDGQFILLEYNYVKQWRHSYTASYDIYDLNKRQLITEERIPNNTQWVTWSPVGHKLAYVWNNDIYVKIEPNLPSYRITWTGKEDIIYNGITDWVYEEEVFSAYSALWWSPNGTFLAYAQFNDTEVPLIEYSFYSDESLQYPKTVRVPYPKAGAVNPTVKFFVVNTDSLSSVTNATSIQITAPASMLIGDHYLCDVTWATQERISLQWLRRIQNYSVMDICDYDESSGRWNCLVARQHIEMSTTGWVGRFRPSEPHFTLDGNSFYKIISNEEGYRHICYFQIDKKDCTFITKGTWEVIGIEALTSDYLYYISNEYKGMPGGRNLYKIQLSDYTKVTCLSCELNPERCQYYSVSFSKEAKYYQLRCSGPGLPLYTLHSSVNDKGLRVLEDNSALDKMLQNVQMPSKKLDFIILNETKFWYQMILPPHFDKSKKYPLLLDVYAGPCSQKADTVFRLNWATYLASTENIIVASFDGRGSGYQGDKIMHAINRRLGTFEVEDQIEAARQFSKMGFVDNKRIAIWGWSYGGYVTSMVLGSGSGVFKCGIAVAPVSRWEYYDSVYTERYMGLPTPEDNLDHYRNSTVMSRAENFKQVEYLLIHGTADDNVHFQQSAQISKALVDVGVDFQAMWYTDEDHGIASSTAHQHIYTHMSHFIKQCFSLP

## CC(C)N1CCC(c2ccccc2)(c2ccccc2)CC1 [Prodipine, Pro-Pro-diphenyl-phosphonate]
rats
  cardiac allograft survival: 14 day

## CC(C)[C@H](N)C(=O)N1CCC[C@H]1B(O)O [Val-Boro-Pro]
mouse
  hematopoiesis: stimulated hematopoiesis

## CC[C@H](C)[C@H](N)C(=O)N1CCC[C@H]1C(=O)N[C@H](C(=O)O)[C@@H](C)CC [diprotin A]
DPP-IV
  degradation of GRF in plasma to GRF[3-44]: prevented
